Experiments:
[1] = system: Naïve T cells-transferred colitis model; assay: Drug efficiency evaluation in naïve T cells-transferred colitis model; format: in vivo; conditions: SCID mice, mean ± standard error; for Body weight change ratio (%): oral twice a day from day 15, 15 mg/kg, day 30; for Colon weight (%) / DAI score (%): oral twice a day, 15 mg/kg, vehicle group = 100%
Protocol: The Drug Efficiency Evaluation in Naïve T Cells—Transferred Colitis Model
(1) Purification of CD45RB Positive Naïve T Cells and Transfer the Cells into SCID Mice
After female BALB/c mice (Charles River Japan, 8-weeks-old in use) were sacrificed by blood removal from cervical vein under inhalation anesthesia with isoflurane spleens were harvested from these mice. Spleens were washed with ice-cold PBS (phosphate buffered saline, Invitrogen) and stored in 50 mL tube containing PBS on ice. Spleens stored on ice were mashed with the upper portion of slide glasses inside a biological safety cabinet, and filtered through a cell filter (pore size 70 μm), and the filtrate was centrifuged at 500×g, room temperature for 5 minutes. After the supernatant was removed, 12 mL of RBC lysis buffer (Biolegend) was added to a cell pellet and it was resuspended and left for about 3 minutes. The supernatant was removed after centrifugation and the hemolytic process was performed by repeating same procedure once again.
The cells were purified with Mouse Naive T cell CD4^+/CD62L^+/CD44^low Colum Kit (R&D systems). The cells performed with the hemolytic process, were suspended by column buffer attached to the above Column Kit, and purified through a cell filter (pore size 70 μm) after centrifugation at 500×g, room temperature for 5 minutes. The cells were resuspended with column buffer, and antibody cocktails attached to the above Column Kit were added to this and mixed. After that, the cells were purified according to the protocol of the Column Kit.
Next, purification of CD45RB positive cells was performed by MACS (registered mark) separator (Miltenyi Biotec). The purified cells were suspended with 2 mL of PBS containing 0.5% BSA, and reacted at room temperature for 15 minutes after adding FITC (fluorescein isothiocyanate)-labeled anti-CD45RB antibody (Biolegend). After washing two times with PBS containing 0.5% BSA by centrifugation, the cells were resuspended with 2 mL of PBS containing 0.5% BSA and reacted at room temperature for 10 minutes after adding anti-FITC microbeads (Miltenyi Biotec). After washing one time with PBS containing 0.5% BSA by centrifugation, the cells were resuspended with 3 mL of PBS containing 0.5% BSA, and a fraction of CD45RB positive cells was purified according to the protocol of MACS (registered trademark) separator. In the process of elution after detached from MACS (registered trademark) separator, the cells were separated with 5 mL of PBS. The cell suspension was washed one time by centrifugation with PBS, resuspended by appropriate PBS and measured the cell number as naïve T cells suspension for transfer. Female CB17/Icr-scid/scid Jcl (SCID mice) (Charles River Japan, 8-weeks-old in use) were induced colitis by intraperitoneal administration of 500 μL (divided into 250 μL two times) of naïve T cells suspension prepared at 6×10^5 cells/mL by PBS.
(2) Measurement of Body Weight and Procedure for Administration of Drugs
Body weights were measured at day 1, 8 and 15 as day 0 when naïve T cells were transferred to mice. Mice were grouped evenly, based on body weight change at day 15. The measurement of body weight was performed two times a week after day 15. A solvent (Vehicle) and test compounds were administered twice a day from the evening of day 15. The administration solution was prepared as indicated below. Firstly, 0.5% methyl cellulose (Wako pure chemicals) of 1/10 volume of total volume was added to test compound, and a suspension was prepared by sonication. […] After that, administration solutions for test compounds were prepared by sonication while adding distilled water of 9/10 volume of total volume to these suspensions in several batches. A solution prepared in the same volume ratios of 0.5% methyl cellulose and distilled water as administration solutions for test compounds was used as vehicle. Administration solutions for vehicle or test compounds were orally administered to mice at 5 mL/kg.

EAE model = assay: Drug efficiency evaluation in experimental autoimmune encephalomyelitis (EAE) model; format: in vivo; conditions: DA rats, oral twice a day, 15 mg/kg, day 0 to day 13; mean ± standard error
Protocol: The Drug Efficiency Evaluation in Experimental Autoimmune Encephalomyelitis (EAE) Model
An EAE model (experimental autoimmune encephalomyelitis, hereinafter referred to as EAE), which is widely used as an animal model reflecting the pathological condition of human multiple sclerosis was prepared using DA rats (Japan SLC, 8 to 9-week-old in use) as described below, and the effect of test compound was confirmed.
Firstly, the emulsion for immunization was prepared by the method described below. After rats were sacrificed by exsanguination from the carotid artery under anesthesia of isoflurane, two spinal cords and a brain were collected. […]
The EAE score was evaluated daily to day 13 as day 0 when DA rats were immunized. The EAE score was evaluated as 0-5 points: 0 points: no symptoms, 1 point: walkable straight with normal our limbs but complete loss of tail tonus, 2 points: slight paralysis of a limb (especially hind limbs) and walkable wobbly, 3 points: full paralysis of two limbs (especially hind limbs) and walkable with a limp, 4 points: tetraplegia, moribund or abasia, 5 points: dead.
The area under the curve was calculated based on the variation per day of EAE score during evaluation periods from immunization day 0 to day 13, and used as an index for effects of test compounds.

Row | Compound | Body weight change ratio (%) [1] [%] | Colon weight (%) [1] [%] | DAI score (%) [1] [%] | Area under the curve of EAE score (EAE model)
1 | CCN(c1ccc(Cl)c(C)c1)C(C)c1ccc(C)c(CN2CC(C(=O)O)C2)c1 (stereo not shown) [Compound 2-6, 1-(5-{1-[(4-Chloro-3-methylphenyl)(ethyl)amino]ethyl}-2-methylbenzyl)azetidine-3-carboxylic acid] | 1.7 ± 1.1 | 36.8 ± 17.1 | 24.3 ± 11.8 | –
2 | CCN(c1ccc(Cl)c(C(F)(F)F)c1)C(C)c1ccc(C)c(CN2CC(C(=O)O)C2)c1 (stereo not shown) [Compound 2-7, 1-(5-{1-[(4-Chloro-3-trifluoromethylphenyl)(ethyl)amino]ethyl}-2-methylbenzyl)-azetidine-3-carboxylic acid] | 1.6 ± 1.2 | 32.4 ± 14.2 | 22.1 ± 14.8 | 6.1 ± 1.6
